What was measured:
Assay in all cases: relative viability (nuclei count vs DMSO), 5 days (fraction); higher = more cells survive
BMX-IN-1 + OSI-027 = compound: C=CC(=O)Nc1cc(-n2c(=O)ccc3cnc4ccc(-c5ccc(NS(C)(=O)=O)cc5)cc4c32)ccc1C [BMX-IN-1] + COc1cccc2cc(-c3nc([C@H]4CC[C@H](C(=O)O)CC4)n4ncnc(N)c34)[nH]c12 [OSI-027] (partner 0.5 µM)
Outline: (§1)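 Lung cancer cell lines in 1536-well plates were dosed by pin tool the day after seeding, either with one drug alone or with a fixed anchor-drug dose plus five library-drug doses (not always all listed) in √10 steps. After 5 days, cells were fixed and their nuclei stained in one step (final 0.05% Triton X-100, 1% formaldehyde, 1 ug/ml Hoechst), then counted on 4× images. Relative viability is the nuclei count in treated wells divided by that in vehicle wells. Values are medians of duplicate plates.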

BMX-IN-1 + Luminespib = compound: C=CC(=O)Nc1cc(-n2c(=O)ccc3cnc4ccc(-c5ccc(NS(C)(=O)=O)cc5)cc4c32)ccc1C [BMX-IN-1] + CCNC(=O)c1noc(-c2cc(C(C)C)c(O)cc2O)c1-c1ccc(CN2CCOCC2)cc1 [Luminespib] (partner 0.01 µM)
Outline: as §1

Ibrutinib + Tozasertib = compound: C=CC(=O)N1CCC[C@@H](n2nc(-c3ccc(Oc4ccccc4)cc3)c3c(N)ncnc32)C1 [Ibrutinib] + Cc1cc(Nc2cc(N3CCN(C)CC3)nc(Sc3ccc(NC(=O)C4CC4)cc3)n2)n[nH]1 [Tozasertib] (partner 0.1 µM)
Outline: as §1

BMX-IN-1 + Tozasertib = compound: C=CC(=O)Nc1cc(-n2c(=O)ccc3cnc4ccc(-c5ccc(NS(C)(=O)=O)cc5)cc4c32)ccc1C [BMX-IN-1] + Cc1cc(Nc2cc(N3CCN(C)CC3)nc(Sc3ccc(NC(=O)C4CC4)cc3)n2)n[nH]1 [Tozasertib] (partner 0.1 µM)
Outline: as §1

Cell Line	relative viability (BMX-IN-1 + OSI-027; first compound 0.02 µM)	relative viability (BMX-IN-1 + OSI-027; first compound 0.2 µM)	relative viability (BMX-IN-1 + OSI-027; first compound 0.6325 µM)	relative viability (BMX-IN-1 + OSI-027; first compound 2 µM)	relative viability (BMX-IN-1 + Luminespib; first compound 0.02 µM)	relative viability (BMX-IN-1 + Luminespib; first compound 0.2 µM)	relative viability (BMX-IN-1 + Luminespib; first compound 0.6325 µM)	relative viability (BMX-IN-1 + Luminespib; first compound 2 µM)	relative viability (Ibrutinib + Tozasertib; first compound 0.005 µM)	relative viability (Ibrutinib + Tozasertib; first compound 0.01581 µM)	relative viability (Ibrutinib + Tozasertib; first compound 0.05 µM)	relative viability (Ibrutinib + Tozasertib; first compound 0.1581 µM)	relative viability (Ibrutinib + Tozasertib; first compound 0.5 µM)	relative viability (BMX-IN-1 + Tozasertib; first compound 0.02 µM)	relative viability (BMX-IN-1 + Tozasertib; first compound 0.2 µM)	relative viability (BMX-IN-1 + Tozasertib; first compound 0.6325 µM)	relative viability (BMX-IN-1 + Tozasertib; first compound 2 µM)
NCI-H1975	0.873	0.741	1.04	0.696	0.253	0.21	0.481	0.159	0.82	0.688	0.695	0.806	0.403	0.958	1.1	0.792	0.695
NCI-H1993	0.546	0.6	0.489	0.476	0.854	0.805	0.829	0.737	0.594	0.529	0.541	0.566	0.524	0.624	0.652	0.585	0.498
NCI-H2009	0.689	0.651	0.639	0.386	1.11	1.09	1.06	1.08	0.737	0.778	0.77	0.788	0.831	0.826	0.853	0.781	0.712
NCI-H2023	0.448	0.434	0.418	0.244	1.06	1.03	0.774	0.739	0.388	0.303	0.324	0.394	0.324	0.363	0.43	0.434	0.333
NCI-H2085	0.743	0.748	0.696	0.745	0.404	0.389	0.401	0.406	0.853	0.628	0.623	0.855	0.697	0.873	0.754	0.794	0.734
NCI-H2087	0.624	0.712	0.589	0.485	0.192	0.179	0.188	0.133	0.303	0.206	0.262		0.233	0.244	0.24	0.344	0.263
NCI-H2126	0.696	0.703	0.872	0.664	1	0.974	1.17	0.909	0.701	0.811	0.792	0.818	0.755	1.03	0.947	0.867	0.829
NCI-H2170	0.735	0.803	0.79	0.769	0.921	0.77	0.821	0.819	0.676	0.748	0.519	0.63	0.23	0.771	0.779	0.625	0.777
NCI-H2228	0.595	0.673	0.789	0.529	0.176	0.138	0.108	0.13	0.282		0.253	0.307	0.187	0.243	0.245	0.243	0.224
NCI-H2342	0.687	0.649	0.608	0.585	0.774	0.765	0.707	0.703	0.499	0.493	0.577	0.53	0.396	0.454	0.526	0.494	0.422
NCI-H2347	0.39	0.356	0.525	0.38	0.438	0.356	0.517	0.353		0.643	0.739	0.532	0.548	0.518	0.471	0.585	0.537
NCI-H2405	0.647	0.63	0.605	0.634	0.747	0.754	0.669	0.674	0.85	0.739	0.798	0.75	0.717	0.808	0.76	0.861	0.747
NCI-H3122	1.23	1.1	1.3	1.1	0.114	0.0826	0.103	0.0683	0.507	0.395	0.343	0.415	0.46	0.516	0.399	0.461	0.117
PC-3 [JPC-3]	0.783	0.887	0.84	0.793	0.82	0.757	0.709	0.68	0.872	0.772	0.873	0.99	0.681	1.02	1.02	1.08	0.951
PC-14	1.46	1.19	0.994	0.0726	0.184	0.107	0.14	0.152	0.646	0.536	0.568	0.556	0.452	0.672	0.658	0.605	0.571
RERF-LC-KJ	0.626	0.612	0.587	0.278	1.3	1.55	1.27	1.49	0.59	0.5	0.467	0.537	0.544	0.566	0.642	0.472	0.435
